Reference: patent US6632932B1, “Trisazo compound” (Orient Chemical Industries, Ltd., priority 2001, dated 2003)

Legend:
[1] = Evaluation of light resistance of ink jet print (xenon fade meter); type: physicochemical; details: amount of energy required for OD value (about 1.0) to decrease to 70%; ink with 6.0% by weight dye, pH 9.0-9.5 (ammonia), printed on PM Photo Paper; xenon 36 W/m^2 (300 to 400 nm), 24° C., 55% humidity
Description: Preparation of Samples for Test:
An ink, the pH of which was adjusted between 9.0 and 9.5 with ammonia, prepared using the composition shown above was set into an ink jet printer (EM-900C manufactured by Seiko Epson Corp.). A piece of paper specially designed for ink jet (PM Photo Paper (Model: KA420PSK) manufactured by Seiko Epson Corp.) was printed with the ink, and it was used as a sample to be tested.
Light irradiation: The sample to be tested was set to a holder. Light irradiation with a xenon fade meter was carried out under the following condition:
Method for evaluation: The sample is taken out after each irradiation of an energy of 3000 kJ/m^2, and a part with an optical density (OD value) of about 1.0 is measured with a Macbeth density meter. The total amount of light irradiated at the time when the OD value has become 70% the original value is calculated.
Criterion for evaluation: The amount of energy required for the OD value to decrease to 70%.

Solubility in water = type: physicochemical; details: under an ammoniacal alkaline condition
[2] = Mutagenicity test (Ames test)

| Evaluation of light resistance [1] | SMILES | other results |
| --- | --- | --- |
| ⊚ (Not less than 70,000 kJ/m^2) | Nc1c(N=Nc2ccc3cc(S(=O)(=O)O)c(N=Nc4ccccc4C(=O)O)c(O)c3c2)cc(S(=O)(=O)O)c2cc(S(=O)(=O)O)c(N=Nc3cc(C(=O)O)ccc3C(=O)O)c(O)c12 [Trisazo compound (8)] |  |
| × | Cc1cc(-c2ccc(N=Nc3c(S(=O)(=O)O)cc4cc(S(=O)(=O)O)c(N=Nc5ccccc5)c(O)c4c3N)c(C)c2)ccc1N=Nc1ccc(N)cc1N [C. I. Direct Black 154, reference compound] |  |
| ⊚ (Not less than 70,000 kJ/m^2) | Nc1c(N=Nc2ccccc2C(=O)O)cc(S(=O)(=O)O)c2cc(S(=O)(=O)O)c(/N=N\c3ccc4cc(S(=O)(=O)O)c(N=Nc5ccccc5C(=O)O)c(O)c4c3)c(O)c12 [Trisazo compound (14)] |  |
| ⊚ (Not less than 70,000 kJ/m^2) | CCOc1ccc(N=Nc2c(S(=O)(=O)O)cc3ccc(N=Nc4cc(S(=O)(=O)O)c5cc(S(=O)(=O)O)c(N=Nc6ccccc6C(=O)O)c(O)c5c4N)cc3c2O)cc1 [Trisazo compound (5)] |  |
| ◯ | COc1ccc(N=Nc2c(S(=O)(=O)O)cc3c(S(=O)(=O)O)cc(N=Nc4ccc5cc(S(=O)(=O)O)c(N=Nc6cc(Cl)ccc6C(=O)O)c(O)c5c4)c(N)c3c2O)c(S(=O)(=O)O)c1 [Trisazo compound (6)] |  |
| ◯ | Nc1c(N=Nc2ccc3cc(S(=O)(=O)O)c(N=Nc4cccc(C(=O)O)c4)c(O)c3c2)cc(S(=O)(=O)O)c2cc(S(=O)(=O)O)c(N=Nc3ccccc3C(=O)O)c(O)c12 [Trisazo compound (11)] |  |
| ⊚ (Not less than 70,000 kJ/m^2) | Nc1c(N=Nc2ccc3c(O)c(N=Nc4ccccc4C(=O)O)c(S(=O)(=O)O)cc3c2)cc(S(=O)(=O)O)c2cc(S(=O)(=O)O)c(N=Nc3ccccc3C(=O)O)c(O)c12 [Trisazo compound (2)] |  |
| ⊚ (Not less than 70,000 kJ/m^2) | Nc1c(N=Nc2ccc3cc(S(=O)(=O)O)c(N=Nc4ccccc4C(=O)O)c(O)c3c2)cc(S(=O)(=O)O)c2cc(S(=O)(=O)O)c(N=Nc3ccccc3C(=O)O)c(O)c12 [Trisazo compound (1)] | solubility in water (Solubility in water): 14%; mutagenicity test (Ames test), ratio [2]: 1.27 times; result of mutagenicity test (Ames test) [2]: negative |

| SMILES | Evaluation of light resistance [1] | other results |
| --- | --- | --- |
| Nc1cc(O)ccc1N=Nc1ccc(Nc2ccc(N=Nc3c(S(=O)(=O)O)cc4cc(S(=O)(=O)O)c(N=Nc5ccccc5)c(O)c4c3N)cc2S(=O)(=O)O)cc1 [C. I. Direct Black 168, reference compound] | Δ (Not less than 10,000 kJ/m^2 and less than 40,000 kJ/m^2) |  |
